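Exposure lasted 48 hours, with cells grown in 96-well plates and compounds tested at five concentrations. At the GI50, growth is halved.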 Activity calls are given as the source filed them. Cut-off read from the data, not from the text of the source: active = GI50 up to about 1.1 µM and inactive = higher.
Assays:
Assay in all cases: DTP human tumour cell line panel, 48 h
HCT-15 = system: HCT-15
SNB-75 = system: SNB-75
HL-60 = system: HL-60
Malme-3M = system: Malme-3M
CCRF-CEM = system: CCRF-CEM
SK-MEL-2 = system: SK-MEL-2
OVCAR-3 = system: OVCAR-3
SW-620 = system: SW-620
HCC 2998 = system: HCC 2998
SN12C = system: SN12C
SK-OV-3 = system: SK-OV-3
MDA-MB-435 = system: MDA-MB-435
Hs-578T = system: Hs-578T
OVCAR-4 = system: OVCAR-4
OVCAR-8 = system: OVCAR-8
EKVX = system: EKVX
RXF 393 = system: RXF 393
HT-29 = system: HT-29
K562 = system: K562
ACHN = system: ACHN
OVCAR-5 = system: OVCAR-5
NCI-H23 = system: NCI-H23
SK-MEL-5 = system: SK-MEL-5
DU-145 = system: DU-145
MDA-MB-231 = system: MDA-MB-231
SR = system: SR
UACC-62 = system: UACC-62
COLO 205 = system: COLO 205
M14 = system: M14
SK-MEL-28 = system: SK-MEL-28
MDA-N = system: MDA-N
NCI-H226 = system: NCI-H226
A498 = system: A498
SNB-19 = system: SNB-19
SF-539 = system: SF-539
CAKI-1 = system: CAKI-1
PC-3 = system: PC-3
IGROV-1 = system: IGROV-1
A549 = system: A549
TK-10 = system: TK-10
UO-31 = system: UO-31
HOP-92 = system: HOP-92
NCI/ADR-RES = system: NCI/ADR-RES
KM12 = system: KM12
HCT-116 = system: HCT-116
T47D = system: T47D
HOP-62 = system: HOP-62
SF-268 = system: SF-268
UACC-257 = system: UACC-257
LOX IMVI = system: LOX IMVI
MOLT-4 = system: MOLT-4
MCF7 = system: MCF7
786-0 = system: 786-0
NCI-H522 = system: NCI-H522
U-251 = system: U-251
RPMI-8226 = system: RPMI-8226
NCI-H460 = system: NCI-H460
SF-295 = system: SF-295

In the case of O=c1c2cccnc2oc2c(Cl)cc(-c3nnn[nH]3)cc12, the GI50 (HCT-15) was > 100 µM, the GI50 (SNB-75) was > 100 µM (inactive) and the GI50 (HL-60) was > 100 µM (inactive). For the same compound, the GI50 (Malme-3M) was > 100 µM (inactive), the GI50 (CCRF-CEM) was > 100 µM (inactive) and the GI50 (SK-MEL-2) was > 100 µM (inactive). For the same compound, the GI50 (OVCAR-3) was > 100 µM (inactive), the GI50 (SW-620) was > 100 µM (inactive) and the GI50 (HCC 2998) was > 100 µM (inactive). For the same compound, the GI50 (SN12C) was > 100 µM (inactive), the GI50 (SK-OV-3) was > 100 µM (inactive) and the GI50 (MDA-MB-435) was > 100 µM (inactive). For the same compound, the GI50 (Hs-578T) was > 100 µM (inactive), the GI50 (OVCAR-4) was > 100 µM (inactive) and the GI50 (OVCAR-8) was > 100 µM (inactive). The GI50 (EKVX) was > 100 µM (inactive), the GI50 (RXF 393) was > 100 µM (inactive) and the GI50 (HT-29) was > 100 µM (inactive). The GI50 (K562) was > 100 µM (inactive), the GI50 (ACHN) was > 100 µM (inactive) and the GI50 (OVCAR-5) was > 100 µM (inactive). For the same compound, the GI50 (NCI-H23) was > 100 µM (inactive), the GI50 (SK-MEL-5) was > 100 µM (inactive) and the GI50 (DU-145) was > 100 µM (inactive). For the same compound, the GI50 (MDA-MB-231) was > 100 µM (inactive), the GI50 (SR) was > 100 µM (inactive) and the GI50 (UACC-62) was > 100 µM (inactive). For the same compound, the GI50 (COLO 205) was > 100 µM (inactive), the GI50 (M14) was > 100 µM (inactive) and the GI50 (SK-MEL-28) was > 100 µM (inactive). For the same compound, the GI50 (MDA-N) was > 100 µM (inactive), the GI50 (NCI-H226) was > 100 µM (inactive) and the GI50 (A498) was > 100 µM (inactive). The GI50 (SNB-19) was > 100 µM (inactive), the GI50 (SF-539) was > 100 µM (inactive) and the GI50 (CAKI-1) was > 100 µM (inactive). The GI50 (PC-3) was > 100 µM (inactive), the GI50 (IGROV-1) was > 100 µM (inactive) and the GI50 (A549) was > 100 µM (inactive). For the same compound, the GI50 (TK-10) was > 100 µM (inactive), the GI50 (UO-31) was 24.7 µM (inactive) and the GI50 (HOP-92) was 68.7 µM (inactive). For the same compound, the GI50 (NCI/ADR-RES) was > 100 µM (inactive), the GI50 (KM12) was > 100 µM (inactive) and the GI50 (HCT-116) was > 100 µM (inactive). For the same compound, the GI50 (T47D) was > 100 µM (inactive), the GI50 (HOP-62) was > 100 µM (inactive) and the GI50 (SF-268) was > 100 µM (inactive).

In the case of COc1ccc(/N=c2/[nH]c(N)c(C(=O)c3ccc(OC)cc3)s2)cc1, the GI50 (HCT-15) was 0.412 µM, the GI50 (SNB-75) was 0.31 µM (active) and the GI50 (HL-60) was 0.119 µM (active). For the same compound, the GI50 (CCRF-CEM) was 0.183 µM (active), the GI50 (SK-MEL-2) was 0.288 µM (active) and the GI50 (OVCAR-3) was 0.255 µM (active). The GI50 (SW-620) was 0.273 µM (active), the GI50 (HCC 2998) was 0.755 µM (active) and the GI50 (UACC-257) was > 100 µM (inactive). For the same compound, the GI50 (SN12C) was 1.93 µM (inactive), the GI50 (SK-OV-3) was 0.376 µM (active) and the GI50 (MDA-MB-435) was 0.0306 µM (active). The GI50 (Hs-578T) was 0.277 µM (active), the GI50 (OVCAR-4) was 0.755 µM (active) and the GI50 (LOX IMVI) was 0.596 µM (active). The GI50 (OVCAR-8) was 0.537 µM (active), the GI50 (EKVX) was 17.3 µM (inactive) and the GI50 (RXF 393) was 0.324 µM (active). For the same compound, the GI50 (HT-29) was 0.316 µM (active), the GI50 (MOLT-4) was 0.0851 µM (active) and the GI50 (K562) was 0.0492 µM (active). The GI50 (OVCAR-5) was 15.3 µM (inactive), the GI50 (NCI-H23) was 0.508 µM (active) and the GI50 (SK-MEL-5) was 0.381 µM (active). For the same compound, the GI50 (DU-145) was 0.378 µM (active), the GI50 (MCF7) was 3.23 µM (inactive) and the GI50 (786-0) was 0.441 µM (active). The GI50 (MDA-MB-231) was 1 µM (active), the GI50 (UACC-62) was 0.481 µM (active) and the GI50 (COLO 205) was 0.279 µM (active). The GI50 (SK-MEL-28) was 4.55 µM (inactive), the GI50 (MDA-N) was 0.0301 µM (active) and the GI50 (NCI-H226) was 17.7 µM (inactive). For the same compound, the GI50 (A498) was 0.46 µM (active), the GI50 (SNB-19) was 0.474 µM (active) and the GI50 (NCI-H522) was 0.127 µM (active). For the same compound, the GI50 (SF-539) was 0.313 µM (active), the GI50 (U-251) was 0.31 µM (active) and the GI50 (RPMI-8226) was 0.164 µM (active). The GI50 (CAKI-1) was 0.313 µM (active), the GI50 (PC-3) was 0.284 µM (active) and the GI50 (IGROV-1) was 0.471 µM (active). The GI50 (A549) was 0.59 µM (active), the GI50 (TK-10) was 15.1 µM (inactive) and the GI50 (NCI-H460) was 0.347 µM (active). The GI50 (UO-31) was 0.468 µM (active), the GI50 (HOP-92) was 25.1 µM (inactive) and the GI50 (NCI/ADR-RES) was 0.211 µM (active). For the same compound, the GI50 (KM12) was 0.378 µM (active), the GI50 (SF-295) was 0.159 µM (active) and the GI50 (HCT-116) was 0.365 µM (active). For the same compound, the GI50 (T47D) was 18.7 µM (inactive) and the GI50 (SF-268) was 12.9 µM (inactive).

Source: ChEMBL document CHEMBL1201862, “PubChem BioAssay data set” (2004)
